ChEMBL document CHEMBL1145709, “Seven New Polyacetylene Derivatives, Showing Both Potent Metamorphosis-Inducing Activity in Ascidian Larvae and Antifouling Activity Against Barnacle Larvae, from the Marine Sponge Callyspongia truncata” (1997)
In brackets after ≈: the same amount, converted by molar mass.

tested on: Amphibalanus amphitrite; assay: Antifouling activity against Balanus amphitrite larvae; assay type: functional; details: not given

Structure (SMILES)	ED100
C#C/C=C\CCCC/C=C\C#CC#CCCCC#CC#C[C@@H](O)COS(=O)(=O)[O-].[Na+] [CALLYSPONGIN B]	0.25 µg/mL

same assay, conditions: Amphibalanus amphitrite; read-out: ED50 (the source's name)

Structure (SMILES)	EC50
C#C/C=C\CCCC/C=C\C#CC#CC(O)CCC#CC#CC(O)CO (centres undefined) [CALLYTRIOL A]	1.3 µg/mL (≈ 3.73 µM)
C#CC#CCCCC#CC#C/C=C\CCCC/C=C\C#C [CALLYPENTAYNE]	0.25 µg/mL (≈ 0.918 µM)
C#C/C=C\C(O)CCC/C=C\C#CC#CCCCC#CC#CC(O)CO (centres undefined) [CALLYTRIOL C]	0.13 µg/mL (≈ 0.373 µM)
C#C/C=C\CCCC(O)/C=C/C#CC#CCCCC#CC#CC(O)CO (centres undefined) [CALLYTRIOL E]	0.13 µg/mL (≈ 0.373 µM)
C#C/C=C\CCCC/C=C\C#CC#CCCCC#CC#C[C@@H](O)CO [SIPHONODIOL]	0.25 µg/mL (≈ 0.752 µM)
C#C/C=C\CCCC/C=C\C#CC#CCCCC#CC#C[C@H](COS(=O)(=O)[O-])OS(=O)(=O)[O-].[Na+].[Na+] [CALLYSPONGIN A]	0.13 µg/mL
C#C/C=C\CCCC#CC#CCCCCCC/C=C\C#C [CALLYTETRAYNE]	0.25 µg/mL (≈ 0.904 µM)
C#C/C=C/C(O)CCC/C=C\C#CC#CCCCC#CC#CC(O)CO (centres undefined) [CALLYTRIOL D]	1.3 µg/mL (≈ 3.73 µM)
C#C/C=C\CCCC(O)/C=C\C#CC#CCCCC#CC#CC(O)CO (centres undefined) [CALLYTRIOL B]	1.3 µg/mL (≈ 3.73 µM)

tested on: Halocynthia roretzi; assay: Induction of metamorphosis in ascidian Halocynthia roretzi; assay type: functional; details: not given

Structure (SMILES)	ED100
C#C/C=C\CCCC/C=C\C#CC#CCCCC#CC#C[C@@H](O)COS(=O)(=O)[O-].[Na+] [CALLYSPONGIN B]	4.1 µg/mL

same assay, conditions: Halocynthia roretzi; read-out: ED50 (the source's name)

Structure (SMILES)	EC50
C#C/C=C\CCCC/C=C\C#CC#CC(O)CCC#CC#CC(O)CO (centres undefined) [CALLYTRIOL A]	0.43 µg/mL (≈ 1.23 µM)
C#C/C=C\C(O)CCC/C=C\C#CC#CCCCC#CC#CC(O)CO (centres undefined) [CALLYTRIOL C]	0.24 µg/mL (≈ 0.689 µM)
C#C/C=C\CCCC(O)/C=C/C#CC#CCCCC#CC#CC(O)CO (centres undefined) [CALLYTRIOL E]	0.63 µg/mL (≈ 1.81 µM)
C#C/C=C\CCCC/C=C\C#CC#CCCCC#CC#C[C@@H](O)CO [SIPHONODIOL]	4.5 µg/mL (≈ 13.5 µM)
C#C/C=C\CCCC/C=C\C#CC#CCCCC#CC#C[C@H](COS(=O)(=O)[O-])OS(=O)(=O)[O-].[Na+].[Na+] [CALLYSPONGIN A]	3.9 µg/mL
C#C/C=C\CCCC#CC#CCCCCCC/C=C\C#C [CALLYTETRAYNE]	30 µg/mL (≈ 109 µM)
C#C/C=C/C(O)CCC/C=C\C#CC#CCCCC#CC#CC(O)CO (centres undefined) [CALLYTRIOL D]	0.38 µg/mL (≈ 1.09 µM)
C#C/C=C\CCCC(O)/C=C\C#CC#CCCCC#CC#CC(O)CO (centres undefined) [CALLYTRIOL B]	0.63 µg/mL (≈ 1.81 µM)
